Data from PubChem BioAssay (NCI).
≈ marks a conversion by molar mass, not a printed value. Where “and” joins values, the source holds several entries; their conditions need not be identical. Equal entries are not always repeated.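 1) Cells in 96-well plates. 2) Compound, 48 h, 5 concentrations. 3) Linear interpolation between surrounding doses. 4) Unreached endpoint = highest concentration. The concentration for 50% growth inhibition is given as GI50. TGI marks complete inhibition of growth.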

Key:
Assay in all cases: NCI tumour cell line growth inhibition, 48 h
RPMI-8226 leukemia = test system: RPMI-8226 leukemia
NCI-H460 lung = test system: NCI-H460 lung
M14 melanoma = test system: M14 melanoma
SF-295 CNS = test system: SF-295 CNS
MDA-N = test system: MDA-N
SW-620 colon = test system: SW-620 colon
OVCAR-5 ovarian = test system: OVCAR-5 ovarian
MALME-3M melanoma = test system: MALME-3M melanoma
HOP-92 NSCLC = test system: HOP-92 NSCLC
SK-MEL-5 melanoma = test system: SK-MEL-5 melanoma
NCI-H522 lung = test system: NCI-H522 lung
MDA-MB-231 breast = test system: MDA-MB-231 breast
UACC-62 melanoma = test system: UACC-62 melanoma
ACHN renal = test system: ACHN renal
T-47D breast = test system: T-47D breast
PC-3 prostate = test system: PC-3 prostate
SN12C renal = test system: SN12C renal
HL-60(TB) leukemia = test system: HL-60(TB) leukemia
KM12 colon = test system: KM12 colon
SK-MEL-2 melanoma = test system: SK-MEL-2 melanoma
786-0 renal = test system: 786-0 renal
BT-549 breast = test system: BT-549 breast
SNB-19 CNS = test system: SNB-19 CNS
TK-10 renal = test system: TK-10 renal
RXF 393 renal = test system: RXF 393 renal
UACC-257 melanoma = test system: UACC-257 melanoma
IGROV1 ovarian = test system: IGROV1 ovarian
MCF7 breast = test system: MCF7 breast
LOX IMVI melanoma = test system: LOX IMVI melanoma
OVCAR-4 ovarian = test system: OVCAR-4 ovarian
K-562 leukemia = test system: K-562 leukemia
SF-268 CNS = test system: SF-268 CNS
HCT-116 colon = test system: HCT-116 colon
DU-145 prostate = test system: DU-145 prostate
HCC-2998 colon = test system: HCC-2998 colon
MDA-MB-435 = test system: MDA-MB-435
SK-MEL-28 melanoma = test system: SK-MEL-28 melanoma
NCI-H23 lung = test system: NCI-H23 lung
COLO 205 colon = test system: COLO 205 colon
OVCAR-3 ovarian = test system: OVCAR-3 ovarian
SR leukemia = test system: SR leukemia
CCRF-CEM leukemia = test system: CCRF-CEM leukemia
A498 renal = test system: A498 renal
CAKI-1 renal = test system: CAKI-1 renal
EKVX NSCLC = test system: EKVX NSCLC
SNB-75 CNS = test system: SNB-75 CNS
A549 NSCLC = test system: A549 NSCLC
MOLT-4 leukemia = test system: MOLT-4 leukemia
SF-539 CNS = test system: SF-539 CNS
HOP-62 NSCLC = test system: HOP-62 NSCLC
HT29 colon = test system: HT29 colon
SK-OV-3 ovarian = test system: SK-OV-3 ovarian
UO-31 renal = test system: UO-31 renal
NCI/ADR-RES ovarian = test system: NCI/ADR-RES ovarian
OVCAR-8 ovarian = test system: OVCAR-8 ovarian
NCI-H226 lung = test system: NCI-H226 lung
HCT-15 colon = test system: HCT-15 colon
HS 578T breast = test system: HS 578T breast
U251 CNS = test system: U251 CNS

SMILES: COc1cc2c(c(OC)c1OC)-c1ccc(SC)cc1C(O)CC2 (stereo unspecified)
- TGI (RPMI-8226 leukemia): > 100 µM and 45.9 µg/mL
- TGI (NCI-H460 lung): 19.5 µM
- TGI (M14 melanoma): > 100 µM and 34.9 µg/mL
- TGI (SF-295 CNS): 83.7 µM
- TGI (MDA-N): 0.461 µM
- TGI (SW-620 colon): > 100 µM
- GI50 (OVCAR-5 ovarian): 0.249 µg/mL
- TGI (OVCAR-5 ovarian): > 100 µM
- TGI (MALME-3M melanoma): > 100 µM
- TGI (HOP-92 NSCLC): > 100 µM
- TGI (SK-MEL-5 melanoma): 1.11 µM and 15.1 µg/mL
- TGI (NCI-H522 lung): 235 nM and 33.7 µg/mL
- TGI (MDA-MB-231 breast): > 100 µM
- TGI (UACC-62 melanoma): 20.4 µM
- TGI (ACHN renal): > 100 µM and 97.9 µg/mL
- TGI (T-47D breast): > 100 µM
- TGI (PC-3 prostate): > 100 µM and 63.9 µg/mL
- TGI (SN12C renal): 23.6 µM
- TGI (HL-60(TB) leukemia): < 0.01 µM
- TGI (KM12 colon): < 0.01 µM
- GI50 (SK-MEL-2 melanoma): 27.4 µg/mL
- TGI (SK-MEL-2 melanoma): > 100 µM
- TGI (786-0 renal): > 100 µM
- TGI (BT-549 breast): 41 µg/mL
- TGI (SNB-19 CNS): > 100 µM
- GI50 (TK-10 renal): 14.2 µg/mL
- TGI (TK-10 renal): > 100 µM
- GI50 (RXF 393 renal): 16.2 µg/mL
- TGI (UACC-257 melanoma): 32.8 µg/mL
- TGI (IGROV1 ovarian): > 100 µM
- TGI (MCF7 breast): > 100 µM and 36.1 µg/mL
- TGI (LOX IMVI melanoma): 74.1 µM
- TGI (OVCAR-4 ovarian): > 100 µM
- TGI (K-562 leukemia): < 0.01 µM
- TGI (SF-268 CNS): 11.6 µM
- TGI (HCT-116 colon): > 100 µM
- TGI (DU-145 prostate): > 100 µM
- TGI (HCC-2998 colon): 18.3 µM
- TGI (MDA-MB-435): 17 µg/mL
- TGI (SK-MEL-28 melanoma): > 100 µM
- TGI (NCI-H23 lung): > 100 µM
- TGI (COLO 205 colon): 0.179 µM
- TGI (OVCAR-3 ovarian): > 100 µM
- TGI (SR leukemia): 34.7 µg/mL (≈ 100 µM)
- TGI (CCRF-CEM leukemia): > 100 µM
- TGI (A498 renal): > 100 µM and 0.0742 µg/mL
- TGI (CAKI-1 renal): 15.7 µM
- TGI (EKVX NSCLC): > 100 µM
- GI50 (SNB-75 CNS): 43.5 µg/mL
- TGI (SNB-75 CNS): 34.7 µM
- TGI (A549 NSCLC): 34.6 µM

SMILES: COc1cccc(-c2cc3c4c(nc5ccccc53)C(=O)c3cccnc3-c4n2)c1
- GI50 (MOLT-4 leukemia): 0.788 µM
- TGI (MOLT-4 leukemia): > 100 µM
- GI50 (RPMI-8226 leukemia): 1.2 µM
- TGI (RPMI-8226 leukemia): 4.22 µM
- GI50 (SF-539 CNS): 3.28 µM
- TGI (SF-539 CNS): 10.3 µM
- GI50 (NCI-H460 lung): 1.07 µM
- GI50 (M14 melanoma): 0.863 µM
- TGI (M14 melanoma): 2.36 µM
- GI50 (SF-295 CNS): 2.34 µM
- TGI (SF-295 CNS): 6.44 µM
- GI50 (MDA-N): 1.74 µM
- TGI (MDA-N): 4.01 µM
- GI50 (SW-620 colon): 1.32 µM
- TGI (SW-620 colon): 3.88 µM
- GI50 (OVCAR-5 ovarian): 3.05 µM
- TGI (OVCAR-5 ovarian): 8.92 µM
- GI50 (MALME-3M melanoma): 0.822 µM
- TGI (MALME-3M melanoma): 3.32 µM
- GI50 (HOP-92 NSCLC): 4.3 µM
- TGI (HOP-92 NSCLC): 19.8 µM
- GI50 (SK-MEL-5 melanoma): 0.578 µM
- TGI (SK-MEL-5 melanoma): 1.76 µM
- GI50 (NCI-H522 lung): 0.429 µM
- TGI (NCI-H522 lung): 2.01 µM
- GI50 (HOP-62 NSCLC): 4.2 µM
- TGI (HOP-62 NSCLC): 12.3 µM
- GI50 (MDA-MB-231 breast): 4.61 µM
- TGI (MDA-MB-231 breast): > 37.8 µM
- GI50 (UACC-62 melanoma): 3.88 µM
- TGI (UACC-62 melanoma): 10.5 µM
- GI50 (ACHN renal): 2.21 µM
- TGI (ACHN renal): 9.82 µM
- GI50 (T-47D breast): 2.26 µM
- TGI (T-47D breast): 5.99 µM
- GI50 (HT29 colon): 2.49 µM
- TGI (HT29 colon): 6.19 µM
- GI50 (PC-3 prostate): 2.73 µM
- TGI (PC-3 prostate): 12.8 µM
- GI50 (SK-OV-3 ovarian): 8.57 µM
- TGI (SK-OV-3 ovarian): 25.7 µM
- GI50 (SN12C renal): 2.44 µM
- TGI (SN12C renal): 6.54 µM
- GI50 (UO-31 renal): 2.02 µM
- TGI (UO-31 renal): 8.45 µM
- GI50 (KM12 colon): 1.54 µM
- TGI (KM12 colon): 3.75 µM
- GI50 (SK-MEL-2 melanoma): 1.18 µM
- TGI (SK-MEL-2 melanoma): 4.16 µM
- GI50 (786-0 renal): 2.03 µM
- TGI (786-0 renal): 4.48 µM
- GI50 (BT-549 breast): 10.6 µM
- TGI (BT-549 breast): 28.1 µM
- GI50 (SNB-19 CNS): 4.2 µM
- TGI (SNB-19 CNS): 11.2 µM
- GI50 (NCI/ADR-RES ovarian): 2.22 µM
- TGI (NCI/ADR-RES ovarian): 7.92 µM
- GI50 (OVCAR-8 ovarian): 1.69 µM
- TGI (OVCAR-8 ovarian): 7.08 µM
- GI50 (TK-10 renal): 5.03 µM
- TGI (TK-10 renal): > 64.8 µM
- GI50 (RXF 393 renal): 2.47 µM
- TGI (RXF 393 renal): 9.91 µM
- GI50 (UACC-257 melanoma): 1.06 µM
- TGI (UACC-257 melanoma): 4.33 µM
- GI50 (IGROV1 ovarian): 3.37 µM
- TGI (IGROV1 ovarian): 14.4 µM
- GI50 (MCF7 breast): 0.418 µM
- TGI (MCF7 breast): > 100 µM
- GI50 (LOX IMVI melanoma): 2.31 µM
- TGI (LOX IMVI melanoma): > 100 µM
- GI50 (NCI-H226 lung): 6.27 µM
- TGI (NCI-H226 lung): 22.3 µM
- GI50 (OVCAR-4 ovarian): 1.94 µM
- TGI (OVCAR-4 ovarian): 8.5 µM
- GI50 (HCT-15 colon): 1.52 µM
- TGI (HCT-15 colon): 4.44 µM
- GI50 (K-562 leukemia): 1.82 µM
- TGI (K-562 leukemia): > 100 µM
- GI50 (SF-268 CNS): 3.27 µM
- TGI (SF-268 CNS): 14.9 µM
- GI50 (HCT-116 colon): 1.3 µM
- TGI (HCT-116 colon): 5.75 µM
- GI50 (DU-145 prostate): 1.67 µM
- TGI (DU-145 prostate): 3.13 µM
- GI50 (HCC-2998 colon): 2.2 µM
- TGI (HCC-2998 colon): 4.61 µM
- GI50 (MDA-MB-435): 1.18 µM
- TGI (MDA-MB-435): 2.57 µM
- GI50 (SK-MEL-28 melanoma): 10.2 µM
- TGI (SK-MEL-28 melanoma): 22.3 µM
- GI50 (NCI-H23 lung): 1.47 µM
- TGI (NCI-H23 lung): 4.28 µM
- GI50 (COLO 205 colon): 5.56 µM
- TGI (COLO 205 colon): 10.9 µM
- GI50 (OVCAR-3 ovarian): 0.3 µM
- GI50 (HS 578T breast): 3.18 µM
- TGI (HS 578T breast): 11.2 µM
- GI50 (A498 renal): 14.1 µM
- TGI (A498 renal): 29.5 µM
- GI50 (CAKI-1 renal): 3.36 µM
- TGI (CAKI-1 renal): 11.5 µM
- GI50 (EKVX NSCLC): 3.98 µM
- TGI (EKVX NSCLC): 14.2 µM
- GI50 (SNB-75 CNS): 2.32 µM
- TGI (SNB-75 CNS): 5.71 µM
- GI50 (U251 CNS): 1.66 µM
- TGI (U251 CNS): 7.13 µM
- GI50 (A549 NSCLC): 1.44 µM
- TGI (A549 NSCLC): 3.82 µM
